Laboratory results taken from US11091531B2, “Antigen-specific helper T-cell receptor genes” (International Institute of Cancer Immunology, Inc., priority 2012, dated 2021).
Peptide text beside a SMILES is read from it.

Test system: HLA-DPB1*05:01-positive TF-1 cells
Experiment: 51Cr releasing assay with target cells pretreated with granzyme-inhibitor
Assay type: cell-based, human
Settings: target cells pretreated with 100 μM for 2 hours; p<0.05; FIG. 4F
Experimental: To confirm whether the cytotoxic activity of the WT1332-TCR-transduced CD4^+ T-cells was dependent on the granzyme B/perforin pathway, HLA-DPB1*05:01-positive TF-1 cells pretreated with 100 μM of a granzyme-inhibitor, Ac-IETD-Cho, were used as target cells. The HLA-DPB1*05:01-positive TF-1 cells were pretreated with 100 μM of Ac-IETD-Cho or DMSO (control) for 2 hours, then labeled with ^51Cr, and incubated with WT1332-TCR-transduced CD4^+ T-cells, and ^51Cr releasing assay was performed.

Compound: CC[C@H](C)[C@H](NC(C)=O)C(=O)N[C@@H](CCC(=O)O)C(=O)N[C@H](C(=O)N[C@H](C=O)CC(=O)O)[C@@H](C)O [Ac-IETD-Cho] (Ac-IETD-aldehyde)
- cytotoxic activity of WT1332-TCR-transduced CD4+ T-cells on pretreated target cells compared with DMSO: markedly lower
